By IC50 is commonly meant the concentration that gives 50% inhibition. High values mean weaker potency, low ones greater potency.

SMILES strings stand for the structures.

One test deals with EGFR (UniProt P00533).
Test [1] has as its target EGFR (Balb/c mice) (UniProt P00533). Conditions: balb/c3t3.
Test [2] has the same target. Conditions: balb/mk cells.

Chain of EGFR (P00533 whole entry, looked up): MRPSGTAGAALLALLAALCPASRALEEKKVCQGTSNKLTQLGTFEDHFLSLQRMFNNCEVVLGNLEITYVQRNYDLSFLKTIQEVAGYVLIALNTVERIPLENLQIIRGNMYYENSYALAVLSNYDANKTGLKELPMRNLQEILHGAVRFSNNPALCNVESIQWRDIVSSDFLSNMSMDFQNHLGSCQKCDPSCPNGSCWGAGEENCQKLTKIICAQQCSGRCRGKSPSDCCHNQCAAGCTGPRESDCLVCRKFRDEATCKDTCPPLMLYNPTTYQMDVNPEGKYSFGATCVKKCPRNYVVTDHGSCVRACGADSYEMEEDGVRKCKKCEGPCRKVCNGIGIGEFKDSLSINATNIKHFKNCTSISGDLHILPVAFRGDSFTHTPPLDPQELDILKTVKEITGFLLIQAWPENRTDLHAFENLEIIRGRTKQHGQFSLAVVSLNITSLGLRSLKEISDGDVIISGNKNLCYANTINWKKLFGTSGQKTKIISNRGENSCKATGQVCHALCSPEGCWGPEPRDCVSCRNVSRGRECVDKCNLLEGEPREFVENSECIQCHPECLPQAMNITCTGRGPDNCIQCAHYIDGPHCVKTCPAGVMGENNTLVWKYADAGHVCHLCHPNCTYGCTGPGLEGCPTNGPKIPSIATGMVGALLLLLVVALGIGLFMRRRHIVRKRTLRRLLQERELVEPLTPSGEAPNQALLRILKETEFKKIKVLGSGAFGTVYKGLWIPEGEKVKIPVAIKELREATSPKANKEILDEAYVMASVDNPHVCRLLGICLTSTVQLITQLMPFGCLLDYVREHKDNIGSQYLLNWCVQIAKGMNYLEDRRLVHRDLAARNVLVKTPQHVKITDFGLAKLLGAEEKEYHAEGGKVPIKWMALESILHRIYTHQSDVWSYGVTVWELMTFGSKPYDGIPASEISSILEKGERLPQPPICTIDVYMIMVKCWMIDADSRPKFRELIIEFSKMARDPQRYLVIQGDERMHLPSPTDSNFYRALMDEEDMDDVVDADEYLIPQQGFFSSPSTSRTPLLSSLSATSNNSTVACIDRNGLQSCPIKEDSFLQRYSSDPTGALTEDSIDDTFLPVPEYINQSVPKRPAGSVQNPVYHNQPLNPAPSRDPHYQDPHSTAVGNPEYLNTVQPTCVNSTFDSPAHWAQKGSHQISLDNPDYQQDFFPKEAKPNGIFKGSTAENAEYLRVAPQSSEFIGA

Consider `CS(=O)(=O)Nc1ccc(-c2cc3c(Nc4cccc(Cl)c4)ncnc3[nH]2)cc1`, for which the half-maximal inhibitory concentration (IC50) against EGFR fell in the range of 0.5 to 1000 nM; in the test with EGFR (Balb/c mice) [1], 1 to 100 nM; with EGFR (Balb/c mice) [2], 100 to 1000 nM.
For `CN(C)C=Nc1cccc(-c2cc3c(Nc4cccc(Cl)c4)ncnc3[nH]2)c1`, in that order: 0.5 to 1000 nM, 1 to 100 nM and 100 to 1000 nM.
As to `CON=Cc1cc2c(Nc3cccc(Cl)c3)ncnc2[nH]1`, the IC50 was 0.5 to 1000 nM against EGFR, 1 to 100 nM in the test with EGFR (Balb/c mice) [1] and 100 to 1000 nM in the test with EGFR (Balb/c mice) [2].
Take `O=C(Nc1ccc(-c2cc3c(Nc4cccc(Cl)c4)ncnc3[nH]2)cc1)c1ccco1`: the IC50 at EGFR fell in the range of 0.5 to 1000 nM; with EGFR (Balb/c mice) [1], 1 to 100 nM; with EGFR (Balb/c mice) [2] it was 100 to 1000 nM.
Regarding `CCS(=O)(=O)Nc1ccc(-c2cc3c(Nc4cccc(Cl)c4)ncnc3[nH]2)cc1`, the IC50 against EGFR lay within 0.5 to 1000 nM; with EGFR (Balb/c mice) [1] it was 1 to 100 nM; with EGFR (Balb/c mice) [2], 100 to 1000 nM.
`O=C(c1cc2c(Nc3cccc(Cl)c3)ncnc2[nH]1)N1CCOCC1`: the half-maximal inhibitory concentration (IC50) against EGFR was 0.5 to 1000 nM; in the test with EGFR (Balb/c mice) [1] it was 1 to 100 nM; in the test with EGFR (Balb/c mice) [2], 100 to 1000 nM.
`CC(C)OC(=O)Nc1ccc(-c2cc3c(Nc4cccc(Cl)c4)ncnc3[nH]2)cc1`: the half-maximal inhibitory concentration (IC50) lay within 0.5 to 1000 nM against EGFR, 1 to 100 nM with EGFR (Balb/c mice) [1] and 100 to 1000 nM with EGFR (Balb/c mice) [2].
As for `OCCN(CCO)Cc1cc2c(Nc3cccc(Cl)c3)ncnc2[nH]1`, the results for the IC50 on EGFR, with EGFR (Balb/c mice) [1] and in the test with EGFR (Balb/c mice) [2] were 0.5 to 1000 nM, 1 to 100 nM and 100 to 1000 nM, respectively.
`CC(C)C(=Nc1ccc(-c2cc3c(Nc4cccc(Cl)c4)ncnc3[nH]2)cc1)N(C)C`: the figures for the IC50 against EGFR, with EGFR (Balb/c mice) [1] and in the test with EGFR (Balb/c mice) [2] were 0.5 to 1000 nM, 1 to 100 nM and 100 to 1000 nM, respectively.
Take `CCN(C=Nc1cccc(-c2cc3c(Nc4cccc(Cl)c4)ncnc3[nH]2)c1)CC`: the IC50 on EGFR was 0.5 to 1000 nM; in the test with EGFR (Balb/c mice) [1], 1 to 100 nM; in the test with EGFR (Balb/c mice) [2], 100 to 1000 nM.
Consider `CC(C)S(=O)(=O)Nc1ccc(-c2cc3c(Nc4cccc(Cl)c4)ncnc3[nH]2)cc1`, for which the IC50 lay in the range of 0.5 to 1000 nM at EGFR, 1 to 100 nM in the test with EGFR (Balb/c mice) [1] and 100 to 1000 nM in the test with EGFR (Balb/c mice) [2].
Consider `CN(C)C=Nc1ccc(-c2cc3c(Nc4cccc(Cl)c4)ncnc3[nH]2)cc1`, for which the results for the half-inhibitory concentration (IC50) on EGFR, in the test with EGFR (Balb/c mice) [1] and with EGFR (Balb/c mice) [2] were 0.5 to 1000 nM, 1 to 100 nM and 100 to 1000 nM, respectively.
Turning to `COc1cc(-c2cc3c(Nc4cccc(C)c4)ncnc3[nH]2)ccc1OCc1ccccc1`, the figures for the IC50 on EGFR, in the test with EGFR (Balb/c mice) [1] and with EGFR (Balb/c mice) [2] were 0.5 to 1000 nM, 1 to 100 nM and 100 to 1000 nM, respectively.
For the molecule `COc1ccc(-c2cc3c(N[C@H](C)c4ccccc4)ncnc3[nH]2)cc1`, the concentration for half-maximal inhibition (IC50) against EGFR lay within 0.5 to 1000 nM; with EGFR (Balb/c mice) [1], 1 to 100 nM; with EGFR (Balb/c mice) [2], 100 to 1000 nM.
For the molecule `Clc1cccc(Nc2ncnc3[nH]c(-c4ccc(N=CN5CCOCC5)cc4)cc23)c1`, the figures for the IC50 against EGFR, in the test with EGFR (Balb/c mice) [1] and with EGFR (Balb/c mice) [2] were 0.5 to 1000 nM, 1 to 100 nM and 100 to 1000 nM, respectively.
Turning to `COC(=O)Nc1ccc(-c2cc3c(Nc4cccc(Cl)c4)ncnc3[nH]2)cc1`, the IC50 against EGFR lay within 0.5 to 1000 nM; with EGFR (Balb/c mice) [1] it was 1 to 100 nM; with EGFR (Balb/c mice) [2] it was 100 to 1000 nM.
Consider `C[C@@H](Nc1ncnc2[nH]c(-c3ccc(NS(C)(=O)=O)cc3)cc12)c1ccccc1`, for which the half-inhibitory concentration (IC50) against EGFR is 0.5 to 1000 nM; with EGFR (Balb/c mice) [1] it was 1 to 100 nM; in the test with EGFR (Balb/c mice) [2], 100 to 1000 nM.
On the same counts, the results for `CC(C)COC(=O)Nc1ccc(-c2cc3c(Nc4cccc(Cl)c4)ncnc3[nH]2)cc1` are 0.5 to 1000 nM, 1 to 100 nM and 100 to 1000 nM.
With `COc1cc(-c2cc3c(Nc4cccc(Cl)c4)ncnc3[nH]2)ccc1OCc1ccccc1`, the IC50 against EGFR lay within 0.5 to 1000 nM; with EGFR (Balb/c mice) [1] it was 1 to 100 nM; with EGFR (Balb/c mice) [2], 100 to 1000 nM.
Take `CN1CCN(C(=O)c2ccc(-c3cc4c(Nc5cccc(Cl)c5)ncnc4[nH]3)cc2)CC1`: the IC50 was in the range of 0.5 to 1000 nM on EGFR, 1 to 100 nM in the test with EGFR (Balb/c mice) [1] and 100 to 1000 nM in the test with EGFR (Balb/c mice) [2].
On to `CCNC(=O)Nc1cccc(-c2cc3c(Nc4cccc(Cl)c4)ncnc3[nH]2)c1`, for which the 50% inhibitory concentration (IC50) on EGFR was in the range of 0.5 to 1000 nM; with EGFR (Balb/c mice) [1], 1 to 100 nM; with EGFR (Balb/c mice) [2], 100 to 1000 nM.
Consider `Clc1cccc(Nc2ncnc3[nH]c(-c4ccc(N=CN5CCCCC5)cc4)cc23)c1`, for which the half-inhibitory concentration (IC50) against EGFR lay in the range of 0.5 to 1000 nM; with EGFR (Balb/c mice) [1], 1 to 100 nM; in the test with EGFR (Balb/c mice) [2], 100 to 1000 nM.
Regarding `OCc1ccc(-c2cc3c(Nc4cccc(Cl)c4)ncnc3[nH]2)cc1`, the half-maximal inhibitory concentration (IC50) was 0.5 to 1000 nM against EGFR, 1 to 100 nM in the test with EGFR (Balb/c mice) [1] and 100 to 1000 nM with EGFR (Balb/c mice) [2].
Regarding `Clc1cccc(Nc2ncnc3[nH]c(-c4cccc(N=CN5CCOCC5)c4)cc23)c1`, the IC50 against EGFR fell in the range of 0.5 to 1000 nM; with EGFR (Balb/c mice) [1] it was 1 to 100 nM; in the test with EGFR (Balb/c mice) [2], 100 to 1000 nM.
As for `O=C(Nc1ccc(-c2cc3c(Nc4cccc(Cl)c4)ncnc3[nH]2)cc1)c1cccs1`, the half-maximal inhibitory concentration (IC50) was 0.5 to 1000 nM against EGFR, 1 to 100 nM with EGFR (Balb/c mice) [1] and 100 to 1000 nM in the test with EGFR (Balb/c mice) [2].
With `CCNC(=S)Nc1ccc(-c2cc3c(Nc4cccc(Cl)c4)ncnc3[nH]2)cc1`, the 50% inhibitory concentration (IC50) fell in the range of 0.5 to 1000 nM on EGFR, 1 to 100 nM with EGFR (Balb/c mice) [1] and 100 to 1000 nM in the test with EGFR (Balb/c mice) [2].
With `Oc1ccc(CNCc2cc3c(Nc4cccc(Cl)c4)ncnc3[nH]2)cc1`, the IC50 at EGFR was in the range of 0.5 to 1000 nM; with EGFR (Balb/c mice) [1], 1 to 100 nM; with EGFR (Balb/c mice) [2], 100 to 1000 nM.
Turning to `Cc1nc(-c2cc3c(Nc4cccc(Cl)c4)ncnc3[nH]2)sc1C`, the half-maximal inhibitory concentration (IC50) on EGFR lay in the range of 0.5 to 1000 nM; with EGFR (Balb/c mice) [1] it was 1 to 100 nM; with EGFR (Balb/c mice) [2] it was 100 to 1000 nM.
With `CCNC(=O)Nc1ccc(-c2cc3c(Nc4cccc(Cl)c4)ncnc3[nH]2)cc1`, the 50% inhibitory concentration (IC50) at EGFR is 0.5 to 1000 nM; with EGFR (Balb/c mice) [1], 1 to 100 nM; with EGFR (Balb/c mice) [2], 100 to 1000 nM.
On the same counts, the results for `CCS(=O)(=O)Nc1cccc(-c2cc3c(N[C@H](C)c4ccccc4)ncnc3[nH]2)c1` are 0.5 to 1000 nM, 1 to 100 nM and 100 to 1000 nM.
In the case of `CC(C)S(=O)(=O)Nc1cccc(-c2cc3c(N[C@H](C)c4ccccc4)ncnc3[nH]2)c1`, the IC50 on EGFR fell in the range of 0.5 to 1000 nM; with EGFR (Balb/c mice) [1] it was 1 to 100 nM; with EGFR (Balb/c mice) [2], 100 to 1000 nM.
For the molecule `CNC(=S)Nc1cccc(-c2cc3c(Nc4cccc(Cl)c4)ncnc3[nH]2)c1`, the IC50 against EGFR was 0.5 to 1000 nM; in the test with EGFR (Balb/c mice) [1], 1 to 100 nM; with EGFR (Balb/c mice) [2], 100 to 1000 nM.
Consider `CCS(=O)(=O)Nc1cccc(-c2cc3c(Nc4cccc(Cl)c4)ncnc3[nH]2)c1`, for which the IC50 against EGFR was 0.5 to 1000 nM; with EGFR (Balb/c mice) [1] it was 1 to 100 nM; in the test with EGFR (Balb/c mice) [2], 100 to 1000 nM.
Turning to `C[C@@H](Nc1ncnc2[nH]c(-c3ccc(N=CN(C)C)cc3)cc12)c1ccccc1`, the IC50 at EGFR is 0.5 to 1000 nM; in the test with EGFR (Balb/c mice) [1], 1 to 100 nM; with EGFR (Balb/c mice) [2], 100 to 1000 nM.
On to `COc1cc(-c2cc3c(Nc4cccc(Cl)c4)ncnc3[nH]2)ccc1O`, for which the IC50 fell in the range of 0.5 to 1000 nM at EGFR, 1 to 100 nM with EGFR (Balb/c mice) [1] and 100 to 1000 nM with EGFR (Balb/c mice) [2].
In the case of `C[C@@H](Nc1ncnc2[nH]c(-c3cccc(NCc4ccccc4)c3)cc12)c1ccccc1`, the half-inhibitory concentration (IC50) is 0.5 to 1000 nM at EGFR, 1 to 100 nM with EGFR (Balb/c mice) [1] and 100 to 1000 nM with EGFR (Balb/c mice) [2].
On the same counts, the results for `CNC(=S)Nc1ccc(-c2cc3c(N[C@H](C)c4ccccc4)ncnc3[nH]2)cc1` are 0.5 to 1000 nM, 1 to 100 nM and 100 to 1000 nM.
As to `CCc1csc(-c2cc3c(Nc4cccc(Cl)c4)ncnc3[nH]2)n1`, the figures for the IC50 against EGFR, with EGFR (Balb/c mice) [1] and with EGFR (Balb/c mice) [2] were 0.5 to 1000 nM, 1 to 100 nM and 100 to 1000 nM, respectively.

Source of the values: the Kinase Knowledgebase extract (Sharma et al. 2016).
